These results are taken from ChEMBL document CHEMBL3991601, “The target landscape of clinical kinase drugs” (Science, 2017).

In assay [1] the target is Serine/threonine-protein kinase MRCK alpha (Homo sapiens, UniProt Q5VT25).
In assay [2] the target is Wee1-like protein kinase (Homo sapiens, UniProt P30291).
Assay [3] has as its target T1, TGF-beta receptor type-1 (Homo sapiens, UniProt P36897).
T1 sequence (P36897 whole entry): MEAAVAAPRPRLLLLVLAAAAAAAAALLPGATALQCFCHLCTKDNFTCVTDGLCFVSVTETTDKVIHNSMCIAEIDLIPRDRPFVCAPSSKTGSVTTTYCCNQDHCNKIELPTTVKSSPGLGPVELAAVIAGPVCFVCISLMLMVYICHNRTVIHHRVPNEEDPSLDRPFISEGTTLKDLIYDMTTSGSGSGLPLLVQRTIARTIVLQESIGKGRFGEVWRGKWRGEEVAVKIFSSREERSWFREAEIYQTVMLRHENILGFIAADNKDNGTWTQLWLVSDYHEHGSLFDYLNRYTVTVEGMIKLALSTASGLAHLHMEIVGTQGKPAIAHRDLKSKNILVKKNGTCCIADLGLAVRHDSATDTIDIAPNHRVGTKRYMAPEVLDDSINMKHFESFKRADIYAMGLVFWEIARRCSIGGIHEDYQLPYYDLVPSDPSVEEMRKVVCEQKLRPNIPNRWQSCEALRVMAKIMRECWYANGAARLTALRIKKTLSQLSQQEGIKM

The target in assay [4] is Serine/threonine-protein kinase PAK 2 (Homo sapiens, UniProt Q13177).
The target of assay [5] is Calcium/calmodulin-dependent protein kinase type II subunit delta (Homo sapiens, UniProt Q13557).
Assay [6] has as its target DnaJ homolog subfamily A member 1 (Homo sapiens, UniProt P31689).
The target in assay [7] is Serine/threonine-protein kinase N1 (Homo sapiens, UniProt Q16512).
Assay [8] addresses Serine/threonine-protein kinase 10 (Homo sapiens, UniProt O94804).
For assay [9], the target named is T2, Structural maintenance of chromosomes protein 1A (Homo sapiens, UniProt Q14683).
T2 sequence (Q14683 whole entry): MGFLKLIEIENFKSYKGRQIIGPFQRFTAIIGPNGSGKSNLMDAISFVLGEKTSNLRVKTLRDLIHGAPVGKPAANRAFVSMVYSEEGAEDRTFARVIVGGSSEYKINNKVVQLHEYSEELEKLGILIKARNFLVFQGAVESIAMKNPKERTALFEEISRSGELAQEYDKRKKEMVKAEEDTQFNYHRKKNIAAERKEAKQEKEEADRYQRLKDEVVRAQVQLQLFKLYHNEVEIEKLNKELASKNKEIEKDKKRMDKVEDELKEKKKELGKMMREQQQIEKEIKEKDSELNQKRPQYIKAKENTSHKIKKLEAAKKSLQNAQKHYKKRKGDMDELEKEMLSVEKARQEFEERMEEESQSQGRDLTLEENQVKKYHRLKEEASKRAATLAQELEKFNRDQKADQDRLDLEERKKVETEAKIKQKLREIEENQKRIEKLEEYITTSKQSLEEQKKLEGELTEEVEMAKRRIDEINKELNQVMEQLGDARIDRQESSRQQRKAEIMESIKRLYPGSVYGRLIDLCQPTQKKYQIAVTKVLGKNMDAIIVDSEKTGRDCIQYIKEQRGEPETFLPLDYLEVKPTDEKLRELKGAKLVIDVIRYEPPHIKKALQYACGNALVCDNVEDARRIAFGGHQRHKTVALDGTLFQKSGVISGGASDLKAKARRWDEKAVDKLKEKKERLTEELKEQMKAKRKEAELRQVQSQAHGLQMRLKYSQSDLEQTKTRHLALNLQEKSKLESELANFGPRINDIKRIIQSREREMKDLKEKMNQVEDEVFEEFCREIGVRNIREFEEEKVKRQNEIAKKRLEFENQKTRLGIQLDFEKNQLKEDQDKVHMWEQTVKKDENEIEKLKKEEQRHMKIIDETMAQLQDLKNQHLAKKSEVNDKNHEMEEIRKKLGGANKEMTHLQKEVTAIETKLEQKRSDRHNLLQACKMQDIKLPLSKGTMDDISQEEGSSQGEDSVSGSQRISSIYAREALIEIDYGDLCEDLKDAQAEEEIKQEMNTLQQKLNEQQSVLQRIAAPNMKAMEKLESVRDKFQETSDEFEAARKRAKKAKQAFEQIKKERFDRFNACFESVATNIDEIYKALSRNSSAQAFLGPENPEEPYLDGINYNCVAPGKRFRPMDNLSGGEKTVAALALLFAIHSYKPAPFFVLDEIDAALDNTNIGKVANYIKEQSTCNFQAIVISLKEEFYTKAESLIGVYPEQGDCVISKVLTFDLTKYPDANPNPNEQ

The target of assay [10] is T3, General transcription and DNA repair factor IIH helicase subunit XPD (Homo sapiens, UniProt P18074).
T3 sequence (P18074 whole entry): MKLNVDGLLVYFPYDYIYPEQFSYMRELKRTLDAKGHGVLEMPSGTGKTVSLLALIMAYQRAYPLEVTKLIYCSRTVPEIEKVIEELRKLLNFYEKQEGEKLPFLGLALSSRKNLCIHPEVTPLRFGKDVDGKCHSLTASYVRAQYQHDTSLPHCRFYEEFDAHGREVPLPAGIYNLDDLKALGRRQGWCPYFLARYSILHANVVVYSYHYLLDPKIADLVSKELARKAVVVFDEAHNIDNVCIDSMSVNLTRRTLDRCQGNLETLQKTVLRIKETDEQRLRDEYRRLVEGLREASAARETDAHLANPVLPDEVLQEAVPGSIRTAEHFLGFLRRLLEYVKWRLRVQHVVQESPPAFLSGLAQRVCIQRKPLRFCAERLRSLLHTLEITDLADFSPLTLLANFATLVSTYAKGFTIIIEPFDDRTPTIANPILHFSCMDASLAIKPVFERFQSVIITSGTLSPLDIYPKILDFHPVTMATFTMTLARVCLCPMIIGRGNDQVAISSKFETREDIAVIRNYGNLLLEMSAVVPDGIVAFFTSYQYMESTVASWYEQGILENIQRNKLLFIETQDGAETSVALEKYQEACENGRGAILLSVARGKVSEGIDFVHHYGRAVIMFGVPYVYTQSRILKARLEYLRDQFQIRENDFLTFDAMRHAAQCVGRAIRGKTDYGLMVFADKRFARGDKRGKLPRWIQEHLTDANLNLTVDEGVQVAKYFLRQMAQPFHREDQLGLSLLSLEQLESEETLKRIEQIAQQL
The note with it: read-out: Kd apparent; k-562, colo 205, sk-n-be(2) and mv-4-11.

Structures are written as SMILES. Activity calls are given as the source filed them. Cut-off read from the data, not from the text of the source, for most assays here: actives have a measured Kd and inactives only a lower limit.
Note: in the data inactive means no Kd found up to 30 µM.

Serine/threonine-protein kinase N1, sequence (Q16512 whole entry): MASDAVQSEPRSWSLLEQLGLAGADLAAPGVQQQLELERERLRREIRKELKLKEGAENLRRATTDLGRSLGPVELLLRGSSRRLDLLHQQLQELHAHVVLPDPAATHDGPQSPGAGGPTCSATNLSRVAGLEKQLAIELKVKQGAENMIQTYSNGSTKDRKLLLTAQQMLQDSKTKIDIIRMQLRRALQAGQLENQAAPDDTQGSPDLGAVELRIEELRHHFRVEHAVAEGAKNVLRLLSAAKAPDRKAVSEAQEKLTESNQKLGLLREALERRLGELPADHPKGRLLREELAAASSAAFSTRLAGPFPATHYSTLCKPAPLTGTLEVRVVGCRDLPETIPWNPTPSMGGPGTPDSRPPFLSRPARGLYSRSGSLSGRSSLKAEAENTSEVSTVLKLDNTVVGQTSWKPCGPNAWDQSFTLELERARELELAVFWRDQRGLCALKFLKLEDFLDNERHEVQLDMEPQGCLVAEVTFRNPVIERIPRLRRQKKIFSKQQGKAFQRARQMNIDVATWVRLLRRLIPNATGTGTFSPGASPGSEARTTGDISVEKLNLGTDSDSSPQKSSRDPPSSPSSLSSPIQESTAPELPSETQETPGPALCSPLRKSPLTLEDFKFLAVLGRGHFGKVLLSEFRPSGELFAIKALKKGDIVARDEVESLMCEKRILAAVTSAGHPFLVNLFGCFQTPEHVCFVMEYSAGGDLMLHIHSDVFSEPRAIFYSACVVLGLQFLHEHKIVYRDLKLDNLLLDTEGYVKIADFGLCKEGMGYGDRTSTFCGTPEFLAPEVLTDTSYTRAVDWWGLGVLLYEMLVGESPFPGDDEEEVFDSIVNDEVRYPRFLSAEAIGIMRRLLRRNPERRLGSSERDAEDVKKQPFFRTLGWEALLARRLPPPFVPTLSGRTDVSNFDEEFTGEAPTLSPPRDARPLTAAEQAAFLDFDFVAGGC
Serine/threonine-protein kinase PAK 2, sequence (Q13177 whole entry): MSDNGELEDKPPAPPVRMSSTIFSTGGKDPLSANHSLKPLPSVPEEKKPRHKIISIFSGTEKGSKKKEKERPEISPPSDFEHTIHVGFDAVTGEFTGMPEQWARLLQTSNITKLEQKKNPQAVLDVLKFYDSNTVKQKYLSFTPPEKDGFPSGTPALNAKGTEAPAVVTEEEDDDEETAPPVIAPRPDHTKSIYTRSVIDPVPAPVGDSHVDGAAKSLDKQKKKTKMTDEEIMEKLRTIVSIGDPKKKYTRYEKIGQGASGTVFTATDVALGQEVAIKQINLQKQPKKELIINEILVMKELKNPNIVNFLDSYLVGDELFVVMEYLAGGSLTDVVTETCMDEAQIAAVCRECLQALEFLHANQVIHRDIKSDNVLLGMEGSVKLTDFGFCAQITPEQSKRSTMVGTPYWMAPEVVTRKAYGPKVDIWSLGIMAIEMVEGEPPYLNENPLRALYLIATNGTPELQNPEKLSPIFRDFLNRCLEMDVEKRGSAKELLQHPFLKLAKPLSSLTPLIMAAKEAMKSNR
Serine/threonine-protein kinase 10, sequence (O94804 whole entry): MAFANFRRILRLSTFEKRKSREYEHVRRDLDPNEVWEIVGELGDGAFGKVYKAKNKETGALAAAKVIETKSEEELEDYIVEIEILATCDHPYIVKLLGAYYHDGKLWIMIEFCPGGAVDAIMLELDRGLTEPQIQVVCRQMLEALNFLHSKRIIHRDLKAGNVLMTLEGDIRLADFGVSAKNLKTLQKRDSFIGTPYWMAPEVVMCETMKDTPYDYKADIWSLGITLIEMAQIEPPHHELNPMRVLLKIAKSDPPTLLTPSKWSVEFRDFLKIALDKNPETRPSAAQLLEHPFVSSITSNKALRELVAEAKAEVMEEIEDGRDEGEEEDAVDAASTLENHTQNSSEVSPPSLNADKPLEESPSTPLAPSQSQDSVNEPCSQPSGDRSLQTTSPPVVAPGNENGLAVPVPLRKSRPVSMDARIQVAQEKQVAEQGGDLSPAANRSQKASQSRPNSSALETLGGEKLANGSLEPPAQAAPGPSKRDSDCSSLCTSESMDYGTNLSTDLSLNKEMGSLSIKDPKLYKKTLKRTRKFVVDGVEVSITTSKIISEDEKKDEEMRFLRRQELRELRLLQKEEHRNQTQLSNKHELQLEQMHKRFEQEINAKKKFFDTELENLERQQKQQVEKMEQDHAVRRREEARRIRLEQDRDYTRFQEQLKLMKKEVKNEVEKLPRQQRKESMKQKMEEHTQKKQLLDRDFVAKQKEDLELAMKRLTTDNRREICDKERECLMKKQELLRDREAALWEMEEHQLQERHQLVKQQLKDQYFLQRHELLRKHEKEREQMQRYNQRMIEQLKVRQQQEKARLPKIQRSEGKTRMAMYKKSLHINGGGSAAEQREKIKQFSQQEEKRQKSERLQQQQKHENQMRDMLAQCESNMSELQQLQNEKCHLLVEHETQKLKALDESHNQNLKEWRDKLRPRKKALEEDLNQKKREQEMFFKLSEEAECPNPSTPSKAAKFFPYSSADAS
DnaJ homolog subfamily A member 1, sequence (P31689 whole entry): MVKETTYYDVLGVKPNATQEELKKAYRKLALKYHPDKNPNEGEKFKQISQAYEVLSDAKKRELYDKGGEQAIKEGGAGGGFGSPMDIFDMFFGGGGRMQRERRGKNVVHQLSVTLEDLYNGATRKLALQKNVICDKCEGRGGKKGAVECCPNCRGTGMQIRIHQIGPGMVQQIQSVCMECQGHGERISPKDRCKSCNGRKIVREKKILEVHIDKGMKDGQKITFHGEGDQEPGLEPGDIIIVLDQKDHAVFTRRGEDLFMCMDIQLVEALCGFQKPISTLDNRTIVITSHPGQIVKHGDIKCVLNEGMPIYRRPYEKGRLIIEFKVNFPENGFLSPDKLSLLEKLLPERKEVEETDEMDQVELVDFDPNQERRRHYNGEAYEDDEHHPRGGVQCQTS
Calcium/calmodulin-dependent protein kinase type II subunit delta, sequence (Q13557 whole entry): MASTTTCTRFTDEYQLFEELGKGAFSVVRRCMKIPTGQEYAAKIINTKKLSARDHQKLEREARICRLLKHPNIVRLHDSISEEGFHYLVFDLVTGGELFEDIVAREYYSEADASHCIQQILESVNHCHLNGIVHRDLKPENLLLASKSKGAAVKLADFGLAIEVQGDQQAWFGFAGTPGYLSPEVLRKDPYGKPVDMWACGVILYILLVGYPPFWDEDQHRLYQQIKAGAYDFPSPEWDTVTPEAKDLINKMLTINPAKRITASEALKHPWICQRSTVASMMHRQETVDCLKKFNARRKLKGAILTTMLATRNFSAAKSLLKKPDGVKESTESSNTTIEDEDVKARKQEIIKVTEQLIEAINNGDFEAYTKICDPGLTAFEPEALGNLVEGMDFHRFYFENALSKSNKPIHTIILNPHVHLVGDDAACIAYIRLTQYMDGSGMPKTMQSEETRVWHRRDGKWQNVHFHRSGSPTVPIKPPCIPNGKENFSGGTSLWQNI
Wee1-like protein kinase, sequence (P30291 whole entry): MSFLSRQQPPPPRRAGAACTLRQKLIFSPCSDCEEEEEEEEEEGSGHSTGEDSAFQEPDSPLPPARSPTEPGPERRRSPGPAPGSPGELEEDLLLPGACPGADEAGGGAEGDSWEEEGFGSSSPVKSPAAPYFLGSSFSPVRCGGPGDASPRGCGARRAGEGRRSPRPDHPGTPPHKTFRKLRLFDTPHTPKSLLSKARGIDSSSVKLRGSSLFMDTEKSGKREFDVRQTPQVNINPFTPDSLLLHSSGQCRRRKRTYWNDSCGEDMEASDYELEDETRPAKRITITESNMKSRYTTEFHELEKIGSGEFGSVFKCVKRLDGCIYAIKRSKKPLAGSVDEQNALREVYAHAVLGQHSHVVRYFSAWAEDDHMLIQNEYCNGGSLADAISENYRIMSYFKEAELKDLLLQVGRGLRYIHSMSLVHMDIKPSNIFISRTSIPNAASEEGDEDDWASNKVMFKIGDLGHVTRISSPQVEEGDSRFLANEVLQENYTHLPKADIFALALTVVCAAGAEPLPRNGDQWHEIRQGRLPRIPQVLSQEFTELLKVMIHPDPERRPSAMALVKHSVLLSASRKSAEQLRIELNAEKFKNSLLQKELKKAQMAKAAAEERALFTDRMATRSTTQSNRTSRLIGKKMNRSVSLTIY

Consider `CCN(CCCOc1ccc2c(Nc3cc(CC(=O)Nc4cccc(F)c4)n[nH]3)ncnc2c1)CCOP(=O)(O)O` [BARASERTIB], for which the Kd in assay [1], in assay [2], in assay [3], in assay [4], in [5] and in assay [6] was > 30 µM (inactive) each time. In addition, the Kd in assay [7], in assay [8], in assay [9] and in [10] was > 30 µM (inactive) in each case.

Consider `COCCN1CCN(Cc2ccc(-c3n[nH]c4c3C(=O)c3c(NC(=O)NN5CCOCC5)cccc3-4)cc2)CC1` [RGB-286638], for which the Kd was 1.09 µM (active) in assay [1]; > 30 µM (inactive) in assay [2]; > 30 µM (inactive) in [3]; > 30 µM (inactive) in assay [4]; > 30 µM (inactive) in [5]; > 30 µM (inactive) in assay [6]. For the same molecule, the Kd in [7] is > 30 µM (inactive); in [8], > 30 µM (inactive); in [9] it was > 30 µM (inactive); in [10] it was 0.456 µM (active).

On to `O=C(NOC[C@H](O)CO)c1ccc(F)c(F)c1Nc1ccc(I)cc1F` [MIRDAMETINIB], for which the Kd in assay [1], in assay [2], in [3], in assay [4], in assay [5] and in assay [6] was > 30 µM (inactive) throughout. The Kd in assay [7], in assay [8], in assay [9] and in assay [10] was > 30 µM (inactive) throughout.

Turning to `CNC(=O)c1cccc(-c2ccc3c(N4CCOC[C@@H]4C)nc(N4CCOC[C@@H]4C)nc3n2)c1` [VISTUSERTIB], the Kd in assay [1], in assay [2], in assay [3], in assay [4], in [5] and in assay [6] was > 30 µM (inactive) each time. The Kd in assay [7], in assay [8], in assay [9] and in assay [10] was > 30 µM (inactive) in each case.

Consider `COc1cc2nccc(Oc3ccc(NC(=O)C4(C(=O)Nc5ccc(F)cc5)CC4)cc3)c2cc1OC` [CABOZANTINIB], for which the Kd in assay [1], in [2], in assay [3], in assay [4], in [5] and in [6] was > 30 µM (inactive) throughout. The Kd in assay [7], in assay [8], in assay [9] and in assay [10] was > 30 µM (inactive) throughout.

Turning to `CCOc1ccn(-c2ccc(F)cc2)c(=O)c1C(=O)Nc1ccc(Oc2ccnc(N)c2Cl)c(F)c1` [BMS-777607], the Kd in assay [1], in [2], in assay [3], in assay [4], in assay [5] and in assay [6] was > 30 µM (inactive) in each case. Moreover, the Kd in assay [7], in [8] and in assay [9] was > 30 µM (inactive) in each case.

Consider `CC(C)(O)CC(=O)NCCn1ccc2ncnc(Nc3ccc(Oc4cccc(C(F)(F)F)c4)c(Cl)c3)c21` [TAK-285], for which the Kd in assay [1], in assay [2], in [3], in assay [4], in assay [5] and in assay [6] was > 30 µM (inactive) throughout. In addition, the Kd in assay [7], in [8] and in assay [9] was > 30 µM (inactive) in each case.

In the case of `CC(C)CC(=O)Nc1[nH]nc2c1CN(C(=O)C1CCN(C)CC1)C2(C)C` [PHA-793887], the Kd in assay [1], in assay [2], in assay [3], in assay [4], in assay [5] and in [6] was > 30 µM (inactive) in each case. Further, the Kd is > 30 µM (inactive) in assay [8], > 30 µM (inactive) in assay [9] and 0.01 µM (active) in assay [10].

For `COc1cccc(Nc2ncnn3ccc(CN4CC[C@@H](N)[C@H](O)C4)c23)c1` [BMS-690514], the Kd is > 30 µM (inactive) in assay [1]; > 30 µM (inactive) in assay [2]; 1.23 µM (active) in assay [3]; > 30 µM (inactive) in assay [4]; 0.703 µM (active) in assay [5]; > 30 µM (inactive) in assay [6]. In addition, the values for the Kd in assay [7], in assay [8] and in assay [9] were 1.34 µM (active), 1.28 µM (active) and > 30 µM (inactive), respectively.

With `COc1cc(F)c(F)c(Nc2ccc(I)cc2F)c1NS(=O)(=O)C1(C[C@H](O)CO)CC1` [REFAMETINIB], the Kd in assay [1], in assay [2], in assay [3], in assay [4], in [5] and in [6] was > 30 µM (inactive) each time. Besides, the Kd in assay [7], in assay [8] and in assay [10] was > 30 µM (inactive) each time.

`C=CC(=O)Nc1cc(Nc2nccc(-c3cn(C)c4ccccc34)n2)c(OC)cc1N(C)CCN(C)C` [OSIMERTINIB]: the Kd in assay [1], in assay [2], in assay [3], in [4], in assay [5] and in assay [6] was > 30 µM (inactive) in each case. The Kd in assay [7], in [8] and in assay [9] was > 30 µM (inactive) each time.
